Assay results as given in patent US20090118225A1, “1-Methyl Nicotinamide and Derivatives for Treatment of Gastric Injury” (Cortria Corporation, priority 2007, published 2009).
Each block holds one compound with its values, some of them ahead of it.

Assays:
[1] = tested on: gastric acid output; test: Gastric acid output in rats having chronic gastric fistula (GF); format: in vivo
Protocol: The following experiments were designed to compare the effects of pretreatment with vehicle and 1-MNA or NA on stress-induced gastric lesions and the accompanying changes in gastric blood flow (GBF) and gastric tissue activities of MDA and SOD and plasma pro-inflammatory cytokine IL-1β and TNF-α levels. These sets of experiments were based on the observation that 1-MNA was able to reduce the gastric output in rats having chronic gastric fistula (GF). Rats with chronic GF were administered with 1-MNA, NA, or a vehicle control.

[2] = tested on: diabetes and stress-induced gastric damage; test: Combined diabetes and stress-induced gastric damage model; format: in vivo, rats
Description: (§1) A venous blood sample was withdrawn from the vena cava into EDTA-containing vials in order to determine the plasma level of interleukin-1 beta (IL-1β) and tumor necrosis factor alpha (TNFα) by ELISA technique (BioSource International, Camarillo, Calif., USA).
The next set of experiments was designed to assess the therapeutic effects of 1-MNA in a combined diabetic and stress-induced gastric damage model.
Insulin-dependent diabetes exerts various influences on gastric functions, such as acid secretion and gastric emptying. It has observed that aggravation of gastric mucosal ulcerogenic responses occurs in diabetic rats. Furthermore, deleterious influence of diabetes on the healing of gastric mucosal lesions has been observed in diabetic rats.

[3] = tested on: I/R-induced gastric lesions; test: Ischemia-reperfusion (I/R)-induced gastric lesion model; format: in vivo, Male Wistar rats
Protocol: (§2) Male Wistar rats, weighing 180-220 grams were fasted for 24 hours before subjecting to experimentation were employed in all studies. The animals were divided into groups for the following types of induced gastric lesions: ethanol-; aspirin (acetylsalicylic acid; ASA)-; stress-; and ischemia-reperfusion (I/R)-induced gastric lesions. In the first group, gastric lesions were produced by intragastric (i.g.) application of ethanol (75%), in the second group by i.g. application of acidified ASA (125 mg/kg), in the third group by animal exposure to 3.5 hours of water immersion (and restraint stress (WRS), in the fourth group by ischemia (by clamping celiac artery for 30 minutes followed by release of the clamp (reperfusion for 3 hours) (I/R).
(§3) The following experiments were designed to assess the therapeutic effect of 1-MNA on induced gastric lesions.
(§4) To assess gastric blood flow (GBF) laser Doppler flowmeter (Laserflo, model BPM 403A, Blood Perfusion Monitor, Vasamedics, St. Paul, Minn., USA) was used. The animals were anaesthetized with Vetbutal 50 mg/kg (Biowet, Pu^3awy, Poland), then the abdomen was opened and the stomach was exposed to assess the GBF. Blood flow was measured on anterior and posterior wall of stomach. The mean values of these measurements were calculated and expressed as percent change from value recorded in the intact mucosa.
(§5) To establish the number and area of gastric lesions, computerized planimetry (Morphomat, Carl Zeiss, Berlin, Germany) was used. Results are expressed as mm.

[4] = tested on: acetic acid ulcer; test: Acetic acid ulcer area and GBF in rats with and without rofecoxib; format: in vivo
Description: The following experiments were designed to assess the effects of 1-MNA on acetic acid ulcer area and GBF in rats administered with and without a selective COX-2 inhibitor (e.g., rofecoxib).

[5] = tested on: WRS-induced gastric lesions; test: Water immersion and restraint stress (WRS)-induced gastric lesion model; format: in vivo, Male Wistar rats; conditions: for effect on the protection by 1-MNA with respect to gastric lesions / effect on the protective property of 1-MNA as measured by mean lesion number and plasma levels of IL-1β and TNFα: COX inhibitor pretreatment plus 1-MNA; for effect on gastroprotection and the accompanying rise in the GBF induced by 1-MNA: summary of inhibitor experiments; for lesion numbers after COX inhibitor pretreatment before 1-MNA and WRS: indomethacin 5 mg/kg i.p., SC-560 5 mg/kg i.g. or rofecoxib 10 mg/kg i.g., versus absence of inhibitor
Protocol: as §2, §3, §4, §5, §1

[6] = tested on: ASA-induced gastric lesions; test: Acidified ASA-induced gastric lesion model; format: in vivo, Male Wistar rats
Protocol: as §2, §3, §4, §5
For lipid peroxydation in investigated groups, the determination of the levels of malondialdehyde (MDA) and 4 hydroxynonenal (4-HNE) was carried out and their levels were used as indicators of lipid peroxidation. The procedure of MDA and 4-HNE determination was following: 600 mg of gastric mucosa was excised. Then […] 0.5 M BHT (butylated hydroxytoluene) was added in order to prevent sample oxidation. This sample was subsequently homogenized in 20 mM Tris for 15 sec. in pH 7.4. The homogenate was centrifuged (3,000 g at 4° C. for 10 minutes). Obtained clear supernatant was stored at −80° C. prior to testing. The colorimetric assay for lipid peroxidation (Bioxytech LPO-586, Oxis, Portland, USA) was used to determine the MDA and 4-HNE tissue concentration. This assay is based on the reaction of a chromogenic reagent N-methyl-2-phenylindole with MDA and 4-HNE at 45° C. This reaction yields a stable chromophore with maximal absorbance at 586 nm. This absorbance was measured by spectrophotometer Marcel s300, Warsaw, Poland. Results were expressed as nanomole per gram of tissue (nmol/g).
To determine activity of superoxide dismutase (SOD), a sample of gastric mucosa was taken, as described above. The calorimetric assay for assessment of SOD activity (Bioxytech, SOD-525, Oxis, Portland, USA) was used. This method is based on the SOD-mediated increase in the rate of autooxidation of tetrahydrobenzofluorene in aqueous alkaline solution to yield a chromophore with maximum absorbance at 525 nm. This absorbance was measured by spectrophotometer Marcel s300, Warsaw, Poland. Outcomes were expressed as units per gram of tissue (U/g).
The next set of experiments were designed to measure myeloperoxidase (MPO), malondialdehyde (MDA) and 4-hydroxynonenal (4-HNE), and superoxide dismutase (SOD) activities in rat stomach exposed to acidified ASA as indicators of the prognosis of gastric mucosa injury. To evaluate the inflammatory changes, myeloperoxidase (MPO) activity in the gastric mucosa was measured. MPO activity was measured by enzyme assay. MDA and 4-HNE in tissue are accepted as major products of lipid peroxidation and thus are considered as indicators of mucosa injury by reactive oxygen species (ROS). Organisms have several enzymatic systems that scavenge ROS and prevent their destructive action. The major antioxidative enzyme is superoxide dismutase (SOD).

[7] = tested on: ethanol-induced gastric lesions; test: Ethanol-induced gastric lesion model; format: in vivo, Male Wistar rats
Protocol: as §2, §3, §4, §5

[8] = ischemia 30 minutes, reperfusion 3 hours, pretreatment
[9] = WRS 3.5 hours, pretreatment 30 minutes prior
[10] = acidified ASA 125 mg/kg i.g., pretreatment
[11] = comparison of protective properties
[12] = ethanol (75%) i.g., pretreatment
[13] = WRS, administration of 16,16-dimethyl PGE2

Compound: C[n+]1cccc(C(N)=O)c1 [1-MNA, 1-methyl nicotinamide]
dose dependence of the ability to inhibit gastric output [1]: increased with increasing dosage
suppression of gastric acid output compared with NA ([1]; 1-MNA versus NA): more effectively than NA
gastric acid output ([1]; 1-MNA, NA or vehicle control): decrease the gastric acid output
mean lesion number [2]: reduce mean lesion number
plasma level of IL-1β [2]: decrease
plasma level of TNFα [2]: decrease
gastric blood flow [3, 8]: increased gastric blood flow
lesion number [3, 8]: decreased lesion number
GBF in the ulcer area ([4]; rats given rofecoxib): increase the GBF in the ulcer area
ulcer area ([4]; rats given rofecoxib): reduce the ulcer area in rats given rofecoxib
GBF in the ulcer area ([4]; without rofecoxib): increase the GBF in the ulcer area
ulcer area ([4]; without rofecoxib): reduce the ulcer area
gastric blood flow [5, 9]: increased gastric blood flow
lesion number [5, 9]: decreased lesion number
plasma level of IL-1β ([5]; WRS model): decrease the plasma levels
plasma level of TNFα ([5]; WRS model): decrease the plasma levels
reduction of lesion number compared with NA ([5]; WRS, 1-MNA versus NA): more effectively than NA
increase of gastric blood flow compared with NA ([6]; 1-MNA versus NA): more effectively than NA
reduction of lesion number compared with NA ([6]; 1-MNA versus NA): more effectively than NA
levels of 4-HNE in gastric mucosa ([6]; ASA-induced lesions): decreasing
levels of MDA in gastric mucosa ([6]; ASA-induced lesions): decreasing
levels of MPO in gastric mucosa ([6]; ASA-induced lesions): lowering the levels of MPO
levels of SOD in gastric mucosa ([6]; ASA-induced lesions): increasing the levels of SOD
gastric blood flow [6, 10]: increased gastric blood flow
lesion number [6, 10]: decreased lesion number
increasing GBF, compared with ranitidine, NO-ASA and SIN-1 [6, 11]: equally effective
increasing luminal NO, compared with ranitidine, NO-ASA and SIN-1 [6, 11]: equally effective
reducing mean lesion number, compared with ranitidine, NO-ASA and SIN-1 [6, 11]: equally effective
gastric blood flow [7, 12]: increased gastric blood flow
lesion number [7, 12]: decreased lesion number
increase of gastric blood flow compared with NA ([7]; ethanol model, 1-MNA versus NA): more effectively than NA
reduction of lesion number compared with NA ([7]; ethanol model, 1-MNA versus NA): more effectively than NA
mean lesion number in animals pretreated with either indomethacin, SC-560, or rofecoxib ([7]; ethanol model, presence of 1-MNA): significantly reduced

Compound: CCCCC(C)(C)[C@H](O)/C=C/[C@H]1[C@H](O)CC(=O)[C@@H]1C/C=C\CCCC(=O)O [16,16-dimethyl PGE2]
gastric damage induced by either indomethacin, SC-560, or rofecoxib [5, 13]: successful in preventing the gastric damage
mean lesion number [5, 13]: sufficient to decrease the mean lesion number

Compound: N=C(NCCC[C@H](N)C(=O)O)N[N+](=O)[O-] [L-NNA, NG-nitro-L-arginine, reference compound]
effect on the therapeutic effects of 1-MNA on gastric lesions ([3]; L-NNA 20 mg/kg i.p.): reverse the therapeutic effects of 1-MNA

Compound: COc1ccc(-n2nc(C(F)(F)F)cc2-c2ccc(Cl)cc2)cc1 [SC-560]
effect on the protection by 1-MNA with respect to gastric lesions ([5]; WRS): significantly inhibited the protection by 1-MNA
effect on the protective property of 1-MNA as measured by mean lesion number and plasma levels of IL-1β and TNFα ([5]; WRS): significantly inhibited the protective property of 1-MNA
effect on gastroprotection and the accompanying rise in the GBF induced by 1-MNA [5]: significantly attenuated

Compound: COc1cc(CNC(=O)CCCC/C=C/C(C)C)ccc1O [capsaicin]
effect of capsaicin denervation on the protection induced by 1-MNA with respect to gastric lesions ([5]; WRS, capsaicin 125 mg/kg s.c.): significantly inhibit the protection induced by 1-MNA
effect on gastroprotection and the accompanying rise in the GBF induced by 1-MNA [5]: significantly attenuated

Compound: Oc1cc2c(cc1O)CN(C(=S)NCCc1ccc(Cl)cc1)CCC2 [capsazepine]
effect on the protective property of 1-MNA as measured by mean lesion number and gastric blood flow ([5]; WRS, capsazepine 5 mg/kg s.c.): reduced the protective property of 1-MNA
effect on gastroprotection and the accompanying rise in the GBF induced by 1-MNA [5]: significantly attenuated

Compound: COc1ccc2c(c1)c(CC(=O)O)c(C)n2C(=O)c1ccc(Cl)cc1 [indomethacin]
effect on the protection by 1-MNA with respect to gastric lesions ([5]; WRS): significantly inhibited the protection by 1-MNA
effect on the protective property of 1-MNA as measured by mean lesion number and plasma levels of IL-1β and TNFα ([5]; WRS): significantly inhibited the protective property of 1-MNA
lesion numbers after COX inhibitor pretreatment before 1-MNA and WRS [5]: increase of lesion numbers
effect on gastroprotection and the accompanying rise in the GBF induced by 1-MNA [5]: significantly attenuated

number of lesions after COX inhibitor pretreatment in the absence of 1-MNA ([7]; indomethacin 5 mg/kg i.p., SC-560 5 mg/kg i.g. or rofecoxib 10 mg/kg i.g., versus no inhibitor): increased the number of lesions
Compound: CS(=O)(=O)c1ccc(C2=C(c3ccccc3)C(=O)OC2)cc1 [rofecoxib]
effect on the protection by 1-MNA with respect to gastric lesions ([5]; WRS): significantly inhibited the protection by 1-MNA
effect on the protective property of 1-MNA as measured by mean lesion number and plasma levels of IL-1β and TNFα ([5]; WRS): significantly inhibited the protective property of 1-MNA
lesion numbers after COX inhibitor pretreatment before 1-MNA and WRS [5]: increase of lesion numbers
effect on gastroprotection and the accompanying rise in the GBF induced by 1-MNA [5]: significantly attenuated

Compound: calcitonin gene related peptide [CGRP]
effect on the deleterious effects of capsazepine ([5]; WRS, addition of CGRP): counter the deleterious effects of casazepine
effect on the deleterious effects of capsaicin-induced denervation ([5]; WRS, addition of CGRP to 1-MNA in denervated rats): counteracted the deleterious effects of capsaicin-induced denervation
